Among the data in patent US10364247B2, “Preparation and use of novel protein kinase inhibitors” (Ruijin Hospital Affiliated to Shanghai Jiao Tong University …, priority 2015, dated 2019) are IC50 and GI50 values, retold here.

Holding throughout (type): cell-based, murine
One assay relates to Wt-BaF3. In words: Parental Ba/F3 cell proliferation (CellTiter Glo). Particulars: Mus musculus, parental BaF/3 cells, 48 hours. The procedure, abridged:
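Untransformed murine Ba/F3 cells, kept on 15% WEHI conditioned medium as IL3 source, were seeded at 5000 cells/well with compound. Viability was read by luminescence using CellTiter Glo diluted 1:4 in PBS, with no-cell background and vehicle controls.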
On the technique in general: In ATP-based viability assays light output follows the ATP content of the culture.

The target of the next assay is T1, BaF3-TEL-INSR (Homo sapiens, UniProt P06213).
T1 construct: fused on or other part: P41212 (Transcription factor ETV6)
As to the kind of experiment: Antiproliferative activity, kinase-dependent Ba/F3 cells (MTT/MTS). As to conditions: 48 hours, cell viability, read-out: Tel-INSR IC50. The procedure, abridged:
(§1)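 Murine Ba/F3 cells transformed with the indicated TEL- or EML4-fusion kinases, seeded at 20,000 cells/well in RPMI/10% FCS. Viability by MTT/MTS; IC50 as concentration reducing viability to 50% of DMSO vehicle control.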

In the next assay the target is T2, BaF3-TEL-TIE1 (Homo sapiens, UniProt P35590).
T2 construct: fused on or other part: P41212 (Transcription factor ETV6)
Described as above. As to conditions: 48 hours, cell viability, read-out: tel-TIE1 IC50. In a few lines: as §1

Another assay deals with T3, BaF3-EML4-ALK (Homo sapiens, UniProt Q9UM73).
T3 construct: fused on or other part: Q9HC35 (Echinoderm microtubule-associated protein-like 4)
The description is as above. As to conditions: 48 hours, cell viability, read-out: EML4-ALK IC50. The procedure, abridged:
as §1

The target of the next assay is T4, BaF3-TEL-HCK (Homo sapiens, UniProt P08631).
T4 construct: fused on or other part: P41212 (Transcription factor ETV6)
The assay is described as above. Particulars: 48 hours, cell viability, read-out: Tel-HCK IC50. The procedure, abridged:
as §1

Another assay deals with T5, BaF3-TEL-LYN (Homo sapiens, UniProt P07948).
T5 construct: fused on or other part: P41212 (Transcription factor ETV6)
Described as above. Particulars: 48 hours, cell viability, read-out: tel-LYN IC50. In a few lines: as §1

In a further assay the test system is BaF3-NRASD12. In words: Oncogenic RAS dependent cell proliferation (CellTiter Glo). Particulars: Mus musculus, BaF3-NRASD12 cells, 48 hours, read-out: NRas-BaF3 IC50. The procedure, abridged: (§2)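 BaF/3 cells transformed with NRASD12 or KRASD12, plus parental BaF/3, seeded at 5000 cells/well. Viability read by CellTiter-Glo luminescence, reagent diluted 1:4 in PBS, with vehicle and cell-free background controls.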

For another assay, the system named is BaF3-KRASD12. Described as above. As to conditions: Mus musculus, BaF3-KRASD12 cells, 48 hours, read-out: KRas-BaF3 IC50. The procedure, abridged: as §2
In a further assay the target is T6, BaF3-BCR/ABL (Homo sapiens, UniProt P00519).
T6 construct: fused on or other part: P11274 (Breakpoint cluster region protein)
As to the kind of experiment: Antiproliferative activity, kinase-dependent Ba/F3 cells (MTT/MTS). As to conditions: 48 hours, cell viability, read-out: BCR/ABL IC50. The procedure, abridged:
(§3)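 Murine Ba/F3 cells transformed with BCR/ABL (p210) or BCR/ABL-T315I, grown in RPMI/10% FCS without IL3, were seeded at 20,000 cells/well. Viability was read by MTT/MTS. IC50 is the concentration reducing viability to 50% of DMSO vehicle control.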

A further assay has as its target T7, BaF3-BCR/ABL-T315I (Homo sapiens, UniProt P00519, T315I, cells depend on it).
T7 construct: fused on or other part: P11274 (Breakpoint cluster region protein)
Described as above. Particulars: 48 hours, cell viability, read-out: BCR/ABL T315I IC50. The procedure, abridged:
as §3

T2 sequence (P35590 whole entry, change not shown, the tested form may be a part): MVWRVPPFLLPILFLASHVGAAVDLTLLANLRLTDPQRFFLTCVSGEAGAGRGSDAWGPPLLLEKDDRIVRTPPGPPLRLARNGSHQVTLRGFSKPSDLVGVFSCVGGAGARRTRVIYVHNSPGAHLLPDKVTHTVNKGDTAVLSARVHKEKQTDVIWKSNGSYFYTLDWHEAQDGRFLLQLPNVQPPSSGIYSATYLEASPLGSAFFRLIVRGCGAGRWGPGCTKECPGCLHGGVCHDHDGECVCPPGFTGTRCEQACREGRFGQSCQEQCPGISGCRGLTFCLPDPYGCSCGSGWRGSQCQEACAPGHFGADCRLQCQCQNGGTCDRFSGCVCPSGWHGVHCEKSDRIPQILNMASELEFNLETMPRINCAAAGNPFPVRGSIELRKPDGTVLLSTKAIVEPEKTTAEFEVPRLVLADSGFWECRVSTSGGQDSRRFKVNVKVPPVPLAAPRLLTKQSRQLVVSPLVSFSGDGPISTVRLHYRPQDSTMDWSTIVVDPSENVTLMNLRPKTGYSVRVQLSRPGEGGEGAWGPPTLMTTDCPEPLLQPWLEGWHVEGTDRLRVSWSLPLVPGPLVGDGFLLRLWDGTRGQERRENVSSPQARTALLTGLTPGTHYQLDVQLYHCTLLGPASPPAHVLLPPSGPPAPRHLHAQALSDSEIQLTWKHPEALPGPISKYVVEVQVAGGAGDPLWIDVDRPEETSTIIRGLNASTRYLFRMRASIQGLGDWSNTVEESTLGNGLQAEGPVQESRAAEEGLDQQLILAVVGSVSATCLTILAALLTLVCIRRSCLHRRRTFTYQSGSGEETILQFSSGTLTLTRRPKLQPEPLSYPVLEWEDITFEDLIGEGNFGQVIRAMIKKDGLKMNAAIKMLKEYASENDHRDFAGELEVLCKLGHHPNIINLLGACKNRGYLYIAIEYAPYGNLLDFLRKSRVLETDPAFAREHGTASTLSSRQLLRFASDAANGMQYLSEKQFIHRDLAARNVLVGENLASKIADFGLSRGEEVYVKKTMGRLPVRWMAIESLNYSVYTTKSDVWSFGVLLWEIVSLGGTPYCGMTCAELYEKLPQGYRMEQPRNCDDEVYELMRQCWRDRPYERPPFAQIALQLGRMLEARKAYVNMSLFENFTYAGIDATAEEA
T5 sequence (P07948 whole entry, change not shown, the tested form may be a part): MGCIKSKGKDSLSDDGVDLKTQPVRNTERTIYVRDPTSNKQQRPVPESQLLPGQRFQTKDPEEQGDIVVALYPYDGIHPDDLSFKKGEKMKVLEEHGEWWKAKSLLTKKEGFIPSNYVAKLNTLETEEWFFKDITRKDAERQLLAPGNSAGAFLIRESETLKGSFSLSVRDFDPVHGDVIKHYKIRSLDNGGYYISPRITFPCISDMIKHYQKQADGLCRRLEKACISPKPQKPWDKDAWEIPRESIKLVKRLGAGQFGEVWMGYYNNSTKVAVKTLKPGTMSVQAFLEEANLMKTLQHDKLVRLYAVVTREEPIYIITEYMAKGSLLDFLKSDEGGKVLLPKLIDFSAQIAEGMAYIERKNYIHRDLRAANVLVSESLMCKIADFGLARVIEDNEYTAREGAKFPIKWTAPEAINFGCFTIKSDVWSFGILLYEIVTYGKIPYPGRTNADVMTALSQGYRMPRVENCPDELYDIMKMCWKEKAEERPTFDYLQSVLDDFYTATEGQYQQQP
T4 sequence (P08631 whole entry, change not shown, the tested form may be a part): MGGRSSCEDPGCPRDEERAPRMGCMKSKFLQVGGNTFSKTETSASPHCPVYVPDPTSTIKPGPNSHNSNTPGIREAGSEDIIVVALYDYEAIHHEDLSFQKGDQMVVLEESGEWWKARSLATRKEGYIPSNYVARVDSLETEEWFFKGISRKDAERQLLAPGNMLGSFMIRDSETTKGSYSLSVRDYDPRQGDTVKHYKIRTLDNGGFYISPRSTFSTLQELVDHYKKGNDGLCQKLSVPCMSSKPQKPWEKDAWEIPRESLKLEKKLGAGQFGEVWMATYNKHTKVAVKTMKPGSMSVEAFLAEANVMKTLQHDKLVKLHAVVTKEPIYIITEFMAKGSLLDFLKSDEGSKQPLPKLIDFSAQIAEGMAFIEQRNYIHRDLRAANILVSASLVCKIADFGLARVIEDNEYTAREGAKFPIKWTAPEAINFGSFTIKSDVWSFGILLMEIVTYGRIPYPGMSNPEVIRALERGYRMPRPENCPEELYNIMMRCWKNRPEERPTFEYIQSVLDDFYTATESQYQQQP
T3 sequence (Q9UM73 whole entry, change not shown, the tested form may be a part): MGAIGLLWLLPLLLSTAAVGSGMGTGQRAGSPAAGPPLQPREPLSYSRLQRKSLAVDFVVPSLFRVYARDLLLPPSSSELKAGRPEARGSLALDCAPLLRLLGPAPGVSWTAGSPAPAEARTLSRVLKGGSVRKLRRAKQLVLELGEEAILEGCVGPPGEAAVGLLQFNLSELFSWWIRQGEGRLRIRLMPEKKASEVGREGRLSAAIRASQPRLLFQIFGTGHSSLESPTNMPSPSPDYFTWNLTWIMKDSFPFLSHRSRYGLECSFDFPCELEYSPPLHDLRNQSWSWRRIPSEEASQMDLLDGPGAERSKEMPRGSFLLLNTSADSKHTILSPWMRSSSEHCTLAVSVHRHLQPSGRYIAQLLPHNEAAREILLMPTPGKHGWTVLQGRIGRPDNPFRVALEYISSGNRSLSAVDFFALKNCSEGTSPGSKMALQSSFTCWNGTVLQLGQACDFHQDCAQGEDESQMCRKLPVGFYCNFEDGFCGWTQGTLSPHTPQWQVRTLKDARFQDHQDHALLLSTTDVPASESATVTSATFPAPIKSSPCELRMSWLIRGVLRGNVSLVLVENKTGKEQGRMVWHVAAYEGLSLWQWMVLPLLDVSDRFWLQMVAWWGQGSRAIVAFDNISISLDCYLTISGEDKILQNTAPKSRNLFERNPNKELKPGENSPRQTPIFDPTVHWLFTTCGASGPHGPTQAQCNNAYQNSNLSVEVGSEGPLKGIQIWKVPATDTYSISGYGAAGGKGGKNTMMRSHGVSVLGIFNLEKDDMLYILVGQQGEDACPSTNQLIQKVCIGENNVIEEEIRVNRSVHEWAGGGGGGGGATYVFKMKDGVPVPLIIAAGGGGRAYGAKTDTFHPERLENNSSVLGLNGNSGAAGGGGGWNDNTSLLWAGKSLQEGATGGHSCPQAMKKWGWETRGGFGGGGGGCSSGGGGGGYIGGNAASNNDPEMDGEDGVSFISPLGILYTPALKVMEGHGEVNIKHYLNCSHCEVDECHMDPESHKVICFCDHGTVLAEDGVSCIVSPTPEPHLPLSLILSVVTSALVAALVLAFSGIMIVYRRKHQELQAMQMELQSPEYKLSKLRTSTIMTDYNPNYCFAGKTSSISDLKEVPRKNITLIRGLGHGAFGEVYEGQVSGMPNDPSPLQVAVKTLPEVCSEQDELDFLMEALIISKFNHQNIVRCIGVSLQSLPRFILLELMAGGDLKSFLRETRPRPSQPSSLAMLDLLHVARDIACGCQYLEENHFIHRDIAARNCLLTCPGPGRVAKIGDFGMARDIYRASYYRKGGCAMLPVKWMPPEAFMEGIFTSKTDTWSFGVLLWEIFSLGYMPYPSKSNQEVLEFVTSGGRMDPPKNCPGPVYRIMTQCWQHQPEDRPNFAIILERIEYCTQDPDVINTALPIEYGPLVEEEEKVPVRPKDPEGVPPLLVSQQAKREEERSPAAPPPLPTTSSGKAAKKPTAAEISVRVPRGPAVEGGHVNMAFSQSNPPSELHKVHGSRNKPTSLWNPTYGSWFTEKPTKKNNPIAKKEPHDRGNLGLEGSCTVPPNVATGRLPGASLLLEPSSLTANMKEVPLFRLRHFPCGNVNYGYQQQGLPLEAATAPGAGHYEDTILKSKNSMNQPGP

As usually defined, the IC50 is the concentration that gives 50% inhibition. In the case of `Cc1ccc(Nc2ncc3c(n2)N(C2CC2)CN(c2cc(NC(=O)c4cccc(C(F)(F)F)c4)ccc2C)C3)cn1` [IB-2, N-(3-(1-cyclopropyl-7-((6-methylpyridin-3-yl)amino)-1,4-dihydropyrimido[4,5-d]pyrimidin-3(2H)-yl)-4-methylphenyl)-3-(trifluoromethyl)benzamide], the figures for the IC50 with Wt-BaF3, in the assay on BaF3-NRASD12 and in the assay on BaF3-KRASD12 were 6.03 µM, 1.41 µM and 1.78 µM, respectively. The GI50 on BaF3-TEL-INSR came out at 2.16 µM; on BaF3-TEL-TIE1 it was 1.09 µM; at BaF3-EML4-ALK it was 3.13 µM; on BaF3-TEL-HCK, 2.09 µM; on BaF3-TEL-LYN it was 1.2 µM; on BaF3-BCR/ABL, 0.0538 µM. Moreover, on BaF3-BCR/ABL-T315I, the GI50 was 2.9 µM.

On to `Cc1ccc(NC(=O)c2cccc(C(F)(F)F)c2)cc1N1Cc2cnc(Nc3ccc(N4CCOCC4)nc3)nc2N(C)C1` [IA-15, N-(4-methyl-3-(1-methyl-7-((6-morpholinopyridin-3-yl)amino)-1,4-dihydropyrimido[4,5-d]pyrimidin-3(2H)-yl)phenyl)-3-(trifluoromethyl)benzamide], for which the concentration for half-maximal inhibition (IC50) with Wt-BaF3 was determined as 1.77 µM; with BaF3-NRASD12, 0.404 µM; in the assay with BaF3-KRASD12 it was 0.388 µM. Moreover, the GI50 at BaF3-TEL-INSR was found to be 0.902 µM; at BaF3-TEL-TIE1 it was 0.355 µM; on BaF3-EML4-ALK, 1.16 µM; on BaF3-TEL-HCK, 0.68 µM; on BaF3-TEL-LYN it was 0.264 µM; on BaF3-BCR/ABL, 0.00418 µM. Moreover, the GI50 at BaF3-BCR/ABL-T315I stood at 0.132 µM.

For the molecule `CCN1CN(c2cc(NC(=O)c3cccc(C(F)(F)F)c3)ccc2C)Cc2cnc(Nc3ccc(C)nc3)nc21` [IB-1, N-(3-(1-ethyl-7-((6-methylpyridin-3-yl)amino)-1,4-dihydropyrimido[4,5-d]pyrimidin-3(2H)-yl)-4-methylphenyl)-3-(trifluoromethyl)benzamide], the IC50 was found to be 4.84 µM in the assay on Wt-BaF3, 1.5 µM in the assay with BaF3-NRASD12 and 2.11 µM with BaF3-KRASD12. For the same molecule, the GI50 was 3.23 µM at BaF3-TEL-INSR; 1.29 µM at BaF3-TEL-TIE1; 2.64 µM on BaF3-EML4-ALK; 0.327 µM at BaF3-TEL-HCK; 1.27 µM on BaF3-TEL-LYN; 0.00596 µM on BaF3-BCR/ABL. Further, at BaF3-BCR/ABL-T315I, the GI50 worked out at 0.881 µM.
